In assay [1] the target is T1, human JMJD7 (Homo sapiens, UniProt P0C870).
T1 construct: human JMJD7 (residues 1–316) with an N‐terminal His6‐tag; His6 (N); made in house; host or cells: Escherichia coli Rosetta (DE3)
Kind of assay: MALDI-TOF MS JMJD7 inhibition assay. Type of assay: biochemical. The settings on record: 10 and 50 μM peptide, DTT or TCEP (1 mM) as reductant in the reaction buffer. As to the method:
Due to signal overlaps between some DRG1 peptides and the reference DRG1‐Lys substrate, we synthesized a shorter reference substrate peptide (DRG1‐Lys, residues 17–40) for use in the MS‐based inhibition assays. Synthetic DRG1 peptides (residues 16–40, 10 or 50 μM) were preincubated with JMJD7 (200 nM) for 15 min, after which time the DRG1‐Lys substrate (residues 17–40, 5 μM), 2OG (10 μM), FAS […] and LAA […] were added, and the reaction were carried out for 25 min at room temperature. Most of the DRG1 peptides were not active as JMJD7 inhibitors at 10 μM (residual activity of JMJD7 >50%) (Figure S41a,b), with exceptions including the DRG1‐Orn, DRG1‐hGln and DRG1‐4pyrA peptides.
Single point screening assays were as follows; initially, JMJD7 (200 nM) and substituted DRG1 peptide (10 or 50 μM) were incubated for 15 min, followed by the addition of a mixture of the DRG1‐Lys substrate (5 μM), 2OG (10 μM), FAS (10 μM) and LAA (100 μM) in a final volume of 50 μL in Tris‐buffer (pH 7.5) and incubated for additional 25 min at room temperature. […] Reactions were quenched by the addition of 10% (v/v) formic acid and mixed 1:1 with CHCCA matrix (1:1 v/v MeCN:H2O) then analyzed by MALDI‐TIMS‐TOF MS. JMJD7 activity was determined by calculating the integral of hydroxylated peptide and normalized to a control reaction in absence of potential inhibitory peptides. Every experiment was performed in duplicate (n = 2), error bars are reported as SE.

Assay [2] concerns the target T1, human JMJD7. Kind of assay: Q-TOF-MS protein-observed analysis of intact JMJD7 (adduct formation). The following applies: 2 μM JMJD7, 20 μM peptide; for JMJD7-peptide adduct formation: Q-TOF-MS of intact protein. The assay is classed as binding. Here is the method: To investigate inhibition by the DRG1‐Cys/Sec peptides, we performed protein‐observed analysis of JMJD7 (2 μM) in the presence of the DRG1‐Cys/Sec peptides (20 μM) under likely non‐denaturing conditions (Figure 7g). The observed masses correspond to the JMJD7‐DRG1‐Cys (40.79 kDa) and JMJD7‐DRG1‐Sec (40.84 kDa) adducts, implying that DRG1‐Cys/Sec might inhibit JMJD7 via formation of S‐S/Se‐S bonds, plausibly with Cys132, though further work is required to validate this (Figure 7g).

Assay [3] addresses T1, human JMJD7. As to the kind of experiment: MALDI-TOF MS JMJD7 inhibition assay. Type of assay: biochemical.
Assay [4] concerns the target T1, human JMJD7. As to the kind of experiment: LC-MS assay of JMJD7-catalyzed hydroxylation/oxidation of DRG1 peptides. The settings on record: 10 μM 2OG. The assay is classed as biochemical. Here is the method: Initial assays were carried out by incubation of purified recombinant (Markolovic et al., [2018]) human JMJD7 (2 μM) in the presence of a DRG1 derived peptide (10 μM), 2OG (10 μM), ferrous ammonium sulfate (FAS, 10 μM), and L‐ascorbate (LAA, 100 μM) in Tris buffer at pH 7.5 for 2 h at room temperature. Potential conversion to a hydroxylated product (+16 Da mass shift) was monitored by liquid‐chromatography‐mass‐spectrometry (LC–MS). […] The assay results also implied that DRG1‐Orn was hydroxylated, but to a lower extent (~21%) than DRG1‐Lys. […] The alcohol‐containing peptide hydroxynorleucine (DRG1‐HNle), was hydroxylated at relatively low levels (~24%), implying that H‐bonding interactions and positive charge of the N^ɛ‐amino group of lysine are important for efficient binding and catalysis, but that a neutral alcohol can still be accommodated at the active site (Figure 3f) (Markolovic et al., [2018]).
All reagents were procured from Sigma Aldrich. 2‐Oxoglutarate (2OG, 10 mM) and L‐ascorbic acid (LAA, 50 mM) solutions were prepared freshly by dissolving the solids in deionized water. Ferrous ammonium sulfate (FAS) solution was prepared freshly by dissolving FAS at 400 mM in 20 mM HCl with subsequent dilution to 1 mM using deionized water. JMJD7 assays using DRG1 (16–40) based peptides were performed with the following conditions: (i) 2 or 5 μM JMJD7, 10 μM DRG1 peptide, 100 μM LAA, 10 μM FAS, 10 μM 2OG in mM 50 Tris‐buffer (pH 7.5), (ii) 2 μM JMJD7, 10 μM DRG1 peptide, 100 μM LAA, 10 μM FAS, 20 μM 2OG in mM 50 Tris‐buffer (pH 7.5). Reactions were initiated by addition of enzyme to the cosubstrate/substrate solution in a final reaction volume of 50 μL with 2 h incubation at room temperature. A positive control reaction containing enzyme and a validated peptide substrate was included in all screening studies. After 2 h, reactions were stopped by addition of 5 μL of 10% (v/v) LC–MS grade formic acid (Fisher Scientific) and transferred to a 96 well plate (Agilent). Intact mass peptide analysis was performed by LC–MS using an Agilent 1290 infinity II LC system equipped with an Agilent 1290 multisampler and an Agilent 1290 high speed pump and connected to an Agilent 6550 accurate mass iFunnel quadrupole time of flight (Q‐TOF) mass spectrometer. The reaction mixture (4 μL) was injected and loaded onto a ZORBAX RRHD Eclipse Plus C18 column (Agilent). Solvent A consisted of LC–MS grade water containing 0.1% (v/v) formic acid and solvent B consisted of MeCN containing 0.1% (v/v) formic acid. Peptides were separated using a step wise gradient (0 min – 95% solvent A, 1.0 min – 80% solvent A, 3.0 min – 45% solvent A, 4.0 min – 45% solvent A, 5.0 min – 0% solvent A, 6.0 min – 0% solvent A, 7.0 min – 95% solvent A). This was followed by a 3 min elution with 95% solvent A to re‐equilibrate the column. Flow rates were 0.2 mL/min. The mass spectrometer was operated in the positive ion mode with a drying gas temperature (280°C), drying gas flow rate (13 L min^−1), nebulizer pressure (40 psig), sheath gas temperature (350°C), sheath gas flow rate (12 L min^−1), capillary voltage (4000 V), nozzle voltage (1000 V). Data were analyzed using Agilent MassHunter Qualitative Analysis (Version B.07.00) software.

For assay [5], the target named is T1, human JMJD7. Kind of assay: SPE-MS time-course and steady-state kinetics of JMJD7-catalyzed hydroxylation. Type of assay: biochemical. The following applies: 1.0 μM peptide, 50 nM JMJD7, SPE-MS time-course. As to the method:
Having shown that introduction of γ‐thialysine and γ‐azalysine residues into DRG1 peptides generates substrates that are efficiently hydroxylated by JMJD7, giving nascent products that fragment to give formylglycine, we explored whether these two peptides could compete with the DRG1‐Lys substrate for JMJD7 catalysis. The reactions of DRG1‐Lys, DRG1‐CysNH2 and DRG1‐LysN (1.0 μM) by JMJD7 (50 nM) were investigated as a function of time using SPE‐MS assays.
To quantify the relative efficiencies of DRG1‐Lys and the substrate analog DRG1‐LysE, we carried out kinetics analyses using SPE‐MS assays as the levels of JMJD7‐catalyzed hydroxylation were sufficient for these two substrates.
JMJD7 turnover assays for kinetic studies were performed in 96‐well polypropylene assay plates with 1.0 mL total reaction volume using a series of concentrations of the DRG1 peptide (0.1–5.0 μM), 2OG (20 μM), FAS (10 μM), LAA (100 μM). Reactions were initiated by the addition of JMJD7 (100 nM). MS‐analyses were performed using a RapidFire RF 365 high‐throughput sampling robot (Agilent) attached to an iFunnel Agilent 6550 accurate mass quadrupole time‐of‐flight (Q‐TOF) mass spectrometer operated in the positive ionization mode. The RapidFire RF 365 high‐throughput sampling robot was programmed to aspirate samples from the reaction mixture at the indicated time intervals. Assay samples were loaded onto a C4 solid phase extraction (SPE) cartridge and peptides were eluted using given previous protocols (Tumber et al., [2023]). The % conversion of the hydroxylation reaction were calculated from the ion chromatogram data by integrating peak areas using RapidFire Integrator 4.3.0 software (Agilent).

Assay [6] has as its target T1, human JMJD7. Kind of assay: NMR assay of JMJD7-catalyzed reaction of DRG1 peptides. The assay is classed as biochemical. The following applies: 200 μM peptide, 10 μM JMJD7, 30 μM FAS, 200 μM 2OG, 500 μM LAA, phosphate buffer 10% D2O, pH 7.4, 1H NMR time-course. Here is the method:
To validate the fragmentation of the product on hydroxylation of the DRG1‐CysNH2 peptide, we performed NMR studies focusing on the appearance of small molecules, comparing the results with the DRG1‐Lys substrate. Reactions were carried out by incubating the DRG1 peptide (200 μM) in the presence or absence of enzyme (10 μM JMJD7, 30 μM FAS, 200 μM 2OG, 500 μM LAA, phosphate buffer in 10% D2O v/v, pH 7.4). […] The observation of a DRG1‐CysNH2 derived product with two methylene groups (triplets, δ ~ 3.13 ppm, δ ~ 2.75 ppm) together with spiking using a standard solution confirmed the formation of cysteamine (Figure 4c (1), Figure S35a). […] A loss in intensity of the cysteamine peaks was observed over time, possibly indicating oxidation and/or interactions with JMJD7 (Figure S35).
Stock solutions of L‐ascorbate (LAA; 500 mM), 2‐oxoglutarate (2OG; 20 mM), ferrous ammonium sulphate (FAS; 100 mM), and (trimethylsilyl)propionic‐2,2,3,3‐d 4 (TSP‐d 4; 8 mM) were freshly prepared in water on the day NMR assays were run. These stock solutions of LAA, FAS, and 2OG were diluted using aqueous buffer (50 mM sodium phosphate, pH 7.4, 10% v/v D2O) to give FAS (0.3 mM), 2OG (2 mM), and LAA (5 mM). DRG1 peptides were solubilized in buffer to a final concentration of 2 mM for use in NMR assays. […] Turnover was quantified using TSP‐d 4 as an internal standard.

Assay [7] addresses human Jumonji-C (JmjC) domain-containing protein 7 (JMJD7), residues 1-316 (human) (UniProt P0C870).

Read-outs that look alike come from different tables or passages of the source. Ends that are not written are not given here. Bounds are passed on as bounds.

T1 sequence (P0C870 whole entry, the tested form may be a part): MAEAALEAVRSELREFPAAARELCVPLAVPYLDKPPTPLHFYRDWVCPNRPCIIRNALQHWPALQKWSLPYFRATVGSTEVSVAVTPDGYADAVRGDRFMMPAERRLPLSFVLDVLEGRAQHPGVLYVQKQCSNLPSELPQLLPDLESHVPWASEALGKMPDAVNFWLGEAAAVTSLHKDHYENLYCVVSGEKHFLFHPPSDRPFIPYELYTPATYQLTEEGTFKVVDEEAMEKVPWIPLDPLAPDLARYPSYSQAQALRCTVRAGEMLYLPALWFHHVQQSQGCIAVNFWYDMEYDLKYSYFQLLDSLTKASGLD
human Jumonji-C (JmjC) domain-containing protein 7 (JMJD7), residues 1-316 (human), sequence (P0C870 whole entry, the tested form may be a part): as above

Consider “ARTQKNCATAHHLGLLKARLAKLRR-NH2 [DRG1‐Cys]”, for which the “single point inhibition of JMJD7 under reducing conditions” value in assay [1] was “lack inhibitory activity”. The “JMJD7-peptide cross-linking in the presence of DTT” value in assay [2] (DTT in the buffer, Q-TOF-MS) was “no cross‐linking is observed”. In assay [2], the JMJD7-peptide adduct formation result is “observed in lower extent at 1 min”. Besides, the IC50 (as a rule, the concentration that inhibits the measured activity by half) was determined as 1.25 µM in assay [3] (200 nM JMJD7 preincubated 15 min with peptide (1 nM–150 μM), 5 μM DRG1-Lys (17–40) substrate, 10 μM 2OG, 25 min, room temperature, Tris pH 7.5, MALDI MS, duplicate (n = 2), ± SE, read-out: IC50 (JMJD7 inhibition, with 15 min preincubation)) and 16 µM in assay [3] (same assay conditions but without preincubation, read-out: IC50 (JMJD7 inhibition, without preincubation)).

As to “ARTQKNCysNH2ATAHHLGLLKARLAKLRR [DRG1‐CysNH2, 25-mer DRG1 (16–40) peptide with γ-thialysine at position 22]”, the “fate of the JMJD7 C3-hydroxylation product” value in assay [4] (standard conditions: 2 μM JMJD7, 10 μM peptide, 2 h) is “fragmentation to form DRG1‐formylglycine and its hydrated products”. In assay [5], the “time to complete JMJD7-catalyzed hydroxylation” value is recorded as not above 4 min. Also, the “time to formation of the cysteamine fragment” value in assay [6] was not above 15 min.

With “ARTQKNSerATAHHLGLLKARLAKLRR [DRG1‐Ser, 25-mer DRG1 (16–40) peptide with Ser at position 22]”, in assay [4] (2 μM JMJD7, 10 μM peptide, 10 μM FAS, 100 μM LAA), the “degree of oxidation (+16 Da) of cysteine/methionine analog peptides by JMJD7” value was “did also not undergo oxidation”. Besides, in assay [2], the JMJD7-peptide adduct formation entry was “Adduct formation was not observed”.

As for “DRG1-LysE peptide (DRG1 residues 16-40, (E)-dehydrolysine in place of Lys22)”, in assay [7], the Km of JMJD7-catalysed hydroxylation, steady-state kinetics by SPE-MS (0.1-5.0 μM peptide, 100 nM JMJD7) came out at 3.1 µM.

B1: DRG1-Lys substrate peptide (DRG1 residues 16-40) (peptide)
peptide: ARTQKNKATAHHLGLLKARLAKLRR-NH2
As for B1, the Km of JMJD7-catalysed hydroxylation, steady-state kinetics by SPE-MS (0.1-5.0 μM peptide, 100 nM JMJD7) in assay [7] came to 1.4 µM.

Source of the values: publication PMC11400632, “Substrate selectivity and inhibition of the human lysyl hydroxylase JMJD7” (Protein Science : A Publication of the Protein Society, 2024).
